Measured values taken from patent EP1063992B1, “SULFURPENTA FLUOROPHENYL PYRAZOLES FOR CONTROLLING ECTOPARASITIC INFESTATIONS” (MERCK & CO., INC., priority 1998, dated 1999).
Where two headings read alike, the source gives them in different places.

How the values were obtained:
fleas and ticks = settings: topical application; cited from earlier work
[1] = administered systemically, animals; cited from earlier work
[2] = Observation for emesis (vomition) in treated dogs; type: in vivo, Beagle dogs; settings: 10 mg/kg subcutaneously
Description: (§1) Beagle dogs of both sexes 21 to 31 months old and weighing from 10 to 16 kg were used. Groups of three dogs each were treated with the same active compound in different formulations as follows: • Group 1: topical formulation containing 10% w/v of active compound, 5% w/v polyvinylpyrrolidone 30 and ethanol qs to 100%v/v dosed at 5 mg/kg. • Group 2: long acting parenteral formulation containing 10% w/v of the active compound, 25% w/v of sucrose octaacetate, 1% w/v of propylene glycol octanoate decanoate and triacetin qs 100% v/v dosed subcutaneously at 10 mg/kg. • Group 3: long acting parenteral formulation containing 10% w/v active compound, 10% w/v poly(DL-lactide/glycolide)75/25, and qs 100% v/v 1:1 glycerol formal/triacetin dosed at 10 mg/kg subcutaneously. • Control group of three untreated dogs was included.
(§2) Blood samples were collected from animals in treatment groups on Day 0 at 1, 2, 3 and 6 hours after treatment, on Day 1 at 24 hours after treatment, and whenever emesis was observed. Blood samples were also collected when flea counts were determined. Animals were observed hourly for 6 hours post treatment for emesis.

fleas = test: Activity against fleas in dogs (infestation with about 100 fleas, comb counts about 48 hours later); type: in vivo
Description: as §1
Treatments were administered once on Day 0. On Day 1 animals all animals were infested with approximately 100 fleas. Animals were combed and fleas counted and removed approximately 48 hours after infestation. Animals were infested on days 12 and 26, and combed and fleas counted and removed approximately 48 hours after infestation. Infestation/counting were repeated approximately monthly until efficacy fell below 80% [% efficacy = (1 - (mean flea count of treatment group ö mean flea count of control group) x 100).

[3] = Plasma drug level in treated dogs; type: in vivo, Beagle dogs; settings: dog, sc, group 2: sucrose octaacetate/triacetin formulation, 10 mg/kg subcutaneously, read-out: peak plasma levels
Description: as §1, §2

For `N#Cc1nn(-c2c(Cl)cc(C(F)(F)F)cc2Cl)c(N)c1[S+]([O-])C(F)(F)F` (stereo not drawn) [Fipronil, fipronil], the duration of efficacy (fleas and ticks) is given as “not more than three months” and the vomition [1] is given as “known to cause vomition”.
For `N#Cc1nn(-c2c(Cl)cc(S(F)(F)(F)(F)F)cc2Cl)c(N)c1SC(F)(F)F` [active compound], the vomition ([2]; group 2: sucrose octaacetate/triacetin formulation) was “Vomition occurred”, the vomition ([2]; group 3: poly(DL-lactide/glycolide) formulation) was “No vomition was observed” and the efficacy against fleas (fleas; group 1: topical formulation, 10% w/v active compound, 5 mg/kg once on Day 0, dogs, held for between 55 and 90 days) was greater than 90%. The efficacy against fleas (fleas; group 2: long acting parenteral formulation (sucrose octaacetate/triacetin), 10 mg/kg subcutaneously once, dogs, maintained for up to between 5 and 6 months) was greater than 90%, the “duration of close to 100% efficacy against fleas” value (fleas; group 3: long acting parenteral formulation (poly(DL-lactide/glycolide)75/25, 1:1 glycerol formal/triacetin), 10 mg/kg subcutaneously once, dogs) was greater than 12 months and the efficacy against fleas (fleas; group 3: long acting parenteral formulation (poly(DL-lactide/glycolide)75/25, 1:1 glycerol formal/triacetin), 10 mg/kg subcutaneously once, dogs, for >12 months) was roughly 100%. It also gave a Cmax [3] greater than 100 ng/mL.
